Measurements published in patent US7179604B2, “Methods of use of DNA encoding a human histamine receptor of the H3 subtype” (Ortho-McNeil Pharmaceutical, Inc., priority 1998, dated 2007).

Target: T1, human histamine H3 receptor (Homo sapiens, UniProt Q9Y5N1, E19D)
T1 construct: achieved by transfection of full-length human histamine H3 receptor cDNA into a mammalian host cell; expressed in transfected cells; membrane preparation
Test: Saturation binding of [3H]-N-alpha-methylhistamine to membranes of pH3R expressing L cells
Details: recombinant receptor in L cells, FIG. 7, radioligand 0.01 nM-25 nM, room temperature 45 minutes
Method: Binding Assay on Recombinant Human Histamine H3 Receptor L cells that inhibited forskolin-stimulated cAMP accumulation as described above were grown in 150 cm2 tissue culture dishes. Cells were washed with saline solution, scraped with a cell scraper and collected by centrifugation (1000 rpm, 5 min). L cells expressing human histamine H3 receptor bound ^3H—N-alpha-methylhistamine with high affinity (FIG. 7). Cell membranes were prepared by homogenization of the cell pellet in 20 mM TRIS-HCl with a polytron tissue homogenizer for 10 seconds at high speed. Homogenate was centrifuged at 1000 rpm for 5 minutes at 4° C. The supernatant was then collected and centrifuged at 20,000×g for 25 minutes at 4° C. The final pellet is resuspended in 50 mM Tris-HCl. Cell membranes were incubated with ^3H—N-alpha-methylhistamine (0.01 nM–25 nM) in the presence or absence of excess histamine (10000 nM). Incubation was done at room temperature for 45 minutes. Membranes were harvested by rapid filtration over Whatman GF/C filters and washed 4 times with ice cold 50 mM TRIS HCl. Filters were then dried, mixed with scintillant and counted for radioactivity. […]

T1 sequence (Q9Y5N1 whole entry E19D): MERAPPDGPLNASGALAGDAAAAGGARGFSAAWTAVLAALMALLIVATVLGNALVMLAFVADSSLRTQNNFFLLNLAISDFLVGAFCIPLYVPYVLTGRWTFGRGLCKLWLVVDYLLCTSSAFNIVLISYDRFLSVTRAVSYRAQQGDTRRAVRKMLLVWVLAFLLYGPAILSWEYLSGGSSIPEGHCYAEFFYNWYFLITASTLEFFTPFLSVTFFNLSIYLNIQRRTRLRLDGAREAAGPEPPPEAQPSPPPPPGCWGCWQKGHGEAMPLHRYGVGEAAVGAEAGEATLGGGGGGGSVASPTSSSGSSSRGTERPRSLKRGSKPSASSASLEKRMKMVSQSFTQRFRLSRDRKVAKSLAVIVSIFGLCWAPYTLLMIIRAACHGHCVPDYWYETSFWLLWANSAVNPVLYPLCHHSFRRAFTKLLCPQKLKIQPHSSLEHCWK

[3H]CNCCc1cnc[nH]1 [^3H—N-alpha-methylhistamine]
affinity of binding to L cells expressing human histamine H3 receptor: high affinity
